One block for each molecule: values may come before it.
Columns and labels:
[1] = molecular target: T1, Trypsin (Sus scrofa, UniProt P00761); test: Trypsin inhibition by health supplements in confluent A549 cells (cell detachment, crystal violet staining, microscopy); assay type: cell-based; details: for concentration at end point dilution of trypsin inhibition: FIG. 11, 0.125% trypsin, serial dilutions in 24 well plate; for concentration at end point of trypsin inhibitory effects: FIG. 13, cell morphology under microscope vs cell and trypsin control
T1 construct: purchased Gibco Lot no-2455123
T1 sequence (P00761 9-231): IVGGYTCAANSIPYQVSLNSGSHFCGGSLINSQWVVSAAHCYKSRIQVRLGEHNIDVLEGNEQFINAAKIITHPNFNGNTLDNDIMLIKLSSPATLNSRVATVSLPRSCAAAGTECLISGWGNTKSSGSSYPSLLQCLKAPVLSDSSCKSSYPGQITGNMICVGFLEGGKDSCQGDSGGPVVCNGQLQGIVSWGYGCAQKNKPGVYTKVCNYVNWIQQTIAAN
Procedure: In a preferred embodiment, supplements are diluted two to five-fold dilutions (where ever necessary) in PBS (pH 7.4) either as single component and/or various combinations and tested in cell lines grown in either 6, 12, 24 and/or 48 well plates. Cell (CC) and trypsin control (TC) were kept as protease negative and positive indicators in every experiment. Trypsin-EDTA (Gibco Lot no-2455123, Canada) was added into all wells (0.125%) expect cell control wells.
(§1) Fluids from the plate was discarded and washed twice with PBS. Following wash the plate was stained with 1% crystal violet in […] at room temperature for 5 minutes. Following incubation, crystal violet from each well was discarded and washed two to three times with PBS and removed any excess dye from each well.
(§2) Health supplements were collected from pharmaceutical laboratory and were randomly screened in one of the lungs cancer cell lines called A549 for their protease inhibitory effects. Cells were cultivated in 6 well plate using standard technique until confluent. Once the plate is ready, culture media from each well were removed and washed two times with PBS. Following wash, 500 μl of supplements at appropriate dilutions were added into well followed by 500 μl of trypsin (0.25%) to each well except the well having cell control (CC). Plate was incubated at 37° C. and checked at every 5 minutes to see the effect of trypsin on cell morphology. Once cells in trypsin control well lift off from the surface, discard fluid from all wells, wash two times with PBS and stained cells by 1% crystal violet (in alcohol) for two-three minutes. Following staining wells were washed 2-3 times with PBS in order to remove excess dye and finally checked the cell morphology using inverted microscope as well as by naked eye (FIG. 7, 8).
A further experiment was conducted using serine proteases (Trypsin and Elastase) against two formulations of health supplements such as Vitamin C and combination Vitamins C (PC Drug Center Ltd, Bangkok, Thailand) with Thiamine (B1-Roche, lot no: 8077395)) and Pyridoxine (B6, Roche, lot no: 8079496). This formulation of three vitamins is designed as tbc and experiment was conducted in six well plate with confluent A549 cells using technique described in [0044].
The end point of trypsin inhibition of each supplement was calculated in terms of μg/ml. The cell morphologies were also observed by under inverted microscope (4×10) and are shown FIG. 12-15.

[2] = molecular target: T2, Elastase (Sus scrofa, UniProt P00772); test: Elastase inhibition by health supplements in confluent A549 cells (cell detachment, crystal violet staining, microscopy); assay type: cell-based
T2 construct: purchased SIGMA E017-5 mg
T2 sequence (P00772 27-266): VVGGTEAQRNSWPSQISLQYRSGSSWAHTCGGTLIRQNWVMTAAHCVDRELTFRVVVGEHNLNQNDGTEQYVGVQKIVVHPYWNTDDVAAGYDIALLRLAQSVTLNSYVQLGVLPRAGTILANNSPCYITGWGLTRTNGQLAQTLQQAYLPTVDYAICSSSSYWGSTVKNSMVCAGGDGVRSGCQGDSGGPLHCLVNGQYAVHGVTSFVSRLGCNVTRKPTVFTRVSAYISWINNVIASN
Procedure: as §1
In a solution of the preferred inhibitor of the present invention in which the inhibitor and trypsin are present in a concentration greater 0.355 mM verses 0.524 mM such inhibitor would react >95% of an equivalent molecular amount of trypsin.
as §2, with “Following staining wells were washed 2-3 times with PBS in order to remove excess dye and finally checked the cell morphology using inverted microscope as well as by naked eye (FIG. 7, 8).” left out

[3] = FIG. 12, trypsin at 1.25% concentration, microscopy

concentration at end point dilution of trypsin inhibition [1]: 0.5%
concentration at end point of trypsin inhibitory effects [1]: 0.5%
Compound: Cc1ncc(CO)c(CO)c1O [B6, Pyridoxine]

concentration at end point dilution of trypsin inhibition [1]: 0.25%
concentration efficiently neutralizing catalytic activities of trypsin [1, 3]: 0.25%
concentration from which capability of neutralization of trypsin starts to be lost [1, 3]: 0.125%
Compound: O=C1O[C@H]([C@@H](O)CO)C(O)=C1O [AC-1, Ascorbic acid]

concentration at end point dilution of trypsin inhibition [1]: 1.0%
concentration at end point of trypsin inhibitory effects [1]: 1.0%
Compound: Cc1ncc(C[n+]2csc(CCO)c2C)c(N)n1 [B1, Thiamine]

level of inhibition against trypsin ([1]; FIG. 9, A549, six well plate, 1.25% trypsin, Ascorbic acid 2.5% alone or tbc (Ascorbic acid 2.5%, Thiamine 0.1%, Pyridoxine 0.15%)): good level of inhibition
level of inhibition against elastase ([2]; FIG. 9, A549, six well plate, 0.5% elastase, Ascorbic acid 2.5% alone or tbc (Ascorbic acid 2.5%, Thiamine 0.1%, Pyridoxine 0.15%)): good level of inhibition
Compound: O=C1O[C@H]([C@@H](O)CO)C(O)=C1O [vitamin C, Ascorbic acid]
inhibition of enzymatic activities of Trypsin (T) ([1]; FIG. 7, A549 cells, compared with cell control (CC) and trypsin control (TC)): showed inhibitions of enzymatic activities
inhibition of enzymatic activities of Elastase (E) ([2]; FIG. 7, A549 cells, compared with cell control (CC) and elastase control (EC)): showed inhibitions of enzymatic activities

Reference: patent US20250375416A1, “SERINE PROTEASE INHIBITORY EFFECTS OF HEALTH SUPPLEMENTS IN HUMAN CANCEROUS CELL LINES” (priority 2022, published 2025)
